The test system of one experiment is HCT116 MTAP null cells. The experiment in a line: HCT116 MTAP null cell line proliferation / cell viability (CellTiter-Glo, 6 days). Particulars: 144 h; HCT116 MTAP null cells, 6 days treatment, CellTiter-Glo cell viability; read-out: HCT-116 MTAP null IC50. In kind it is cell-based. The gist of the method:
(§1)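 Viability read by CellTiter-Glo luminescence after 6 days of compound treatment of HCT116 WT and MTAP-null cells (RPMI 1640, 10% FBS). Dose series were 1:3 steps from 1 or 10 μM (8–9 points), or 1:2 steps from 10 or 50 μM (22 points). IC50 from 4-parameter logistic or fixed-slope sigmoidal fit.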
(In general: ATP-based viability assays read luminescence as a measure of living cells.)

The next experiment concerns HCT116 WT cells. The experiment in a line: HCT116 WT (parent) cell line proliferation / cell viability (CellTiter-Glo, 6 days). In kind it is cell-based. As to conditions: Homo sapiens, HCT-116, 144 h, 6 days treatment. A digest of the protocol:
as §1

For orientation: IC50 means the point on the concentration scale where inhibition reaches its midpoint.

`CCOc1ncc2c(n1)COC[C@H]2N(C)C(=O)c1ccc2nc(N)c3cnn(C)c3c2c1` [Example 285, 4-amino-N-((5S)-2-ethoxy-5,8-dihydro-6H-pyrano[3,4-d]-pyrimidin-5-yl)-N,1-dimethyl-1H-pyrazolo[4,3-c]quinoline-8-carboxamide]: the IC50 was found to be 974 nM in the experiment on HCT116 MTAP null cells and 31300 nM in the experiment on HCT116 WT cells.
For the molecule `CN(C(=O)c1ccc2nc(N)c3cnn(C)c3c2c1)[C@@H]1COCc2nc(C(F)(F)F)ccc21` [Example 286, 4-amino-N,1-dimethyl-N-((5S)-2-(trifluoromethyl)-5,8-dihydro-6H-pyrano[3,4-b]pyridin-5-yl)-1H-pyrazolo[4,3-c]quinoline-8-carboxamide], the concentration for half-maximal inhibition (IC50) in the experiment on HCT116 MTAP null cells was 8 nM; in the experiment with HCT116 WT cells it was 619 nM.
The corresponding values for `CN(C(=O)c1cc2c(cn1)nc(N)c1cnn(C)c12)[C@@H]1COCc2cc(C(F)(F)F)ccc21` [Example 288, 4-amino-N,1-dimethyl-N-((4S)-7-(trifluoromethyl)-3,4-dihydro-1H-2-benzopyran-4-yl)-1H-pyrazolo[4,3-c][1,7]naphthyr-idine-8-carboxamide] are 6 nM and 72 nM.
Taken in the same sequence, the figures for `CN(C(=O)c1cc2c(cn1)nc(N)c1cnn(C)c12)[C@@H]1COCc2nc(C(F)(F)F)ccc21` [Example 289, 4-amino-N,1-dimethyl-N-((5S)-2-(trifluoromethyl)-5,8-dihydro-6H-pyrano[3,4-b]pyridin-5-yl)-1H-pyrazolo[4,3-c][1,7]naph-thyridine-8-carboxamide] were 16 nM and 357 nM.
Taken in the same sequence, the figures for `CN(C(=O)c1cc2c(cc1F)nc(N)c1cnn(C)c12)C1CCOc2nc(C(F)(F)F)ccc21` [Example 291, 4-amino-7-fluoro-N,1-dimethyl-N-((4R)-7-(trifluoromethyl)-3,4-dihydro-2H-pyrano[2,3-b]-pyridin-4-yl)-1H-pyrazolo[4,3-c]quinoline-8-carboxamide and 4-amino-7-fluoro-N,1-dimethyl-N-((4S)-7-(trifluoromethyl)-3,4-dihydro-2H-pyrano[2,3-b]pyr-idin-4-yl)-1H-pyrazolo[4,3-c]-quinoline-8-carboxamide] were 169 nM and 10500 nM.
With `CN(C(=O)c1cc2c(cc1F)nc(N)c1cnn(C)c12)[C@@H]1COCc2cc(C(F)(F)F)ncc21` [Example 292, 4-amino-7-fluoro-N,1-dimethyl-N-((4S)-7-(trifluoromethyl)-3,4-dihydro-1H-pyrano[4,3-c]pyr-idin-4-yl)-1H-pyrazolo[4,3-c]-quinoline-8-carboxamide], the IC50 in the experiment with HCT116 MTAP null cells stood at 7 nM; in the experiment with HCT116 WT cells it was 224 nM.
Taken in the same sequence, the figures for `CN(C(=O)c1cc2c(cc1F)nc(N)c1cnn(C)c12)[C@H]1COCc2cc(C(F)(F)F)ncc21` [Example 293, 4-amino-7-fluoro-N,1-dimethyl-N-((4R)-7-(trifluoromethyl)-3,4-dihydro-1H-pyrano[4,3-c]-pyridin-4-yl)-1H-pyrazolo[4,3-c]quinoline-8-carboxamide] were 305 nM and 7210 nM.
In the case of `CN(C(=O)c1cc2c(cc1Cl)nc(N)c1cnn(C)c12)[C@@H]1COCc2cc(C(F)(F)F)ccc21` [Example 294, 4-amino-7-chloro-N,1-dimethyl-N-((4S)-7-(trifluoromethyl)-3,4-dihydro-1H-2-benzopyran-4-yl)-1H-pyrazolo[4,3-c]quinoline-8-carboxamide], the IC50 in the experiment on HCT116 MTAP null cells was found to be 3 nM; in the experiment on HCT116 WT cells, 12 nM.
The corresponding values for `CN(C(=O)c1cc2c(cc1Cl)nc(N)c1cnn(C)c12)[C@@H]1COCc2nc(C(F)(F)F)ccc21` [Example 295, 4-amino-7-chloro-N,1-dimethyl-N-((5S)-2-(trifluoromethyl)-5,8-dihydro-6H-pyrano[3,4-b]-pyridin-5-yl)-1H-pyrazolo[4,3-c]quinoline-8-carboxamide] are 2 nM and 34 nM.
The corresponding values for `CN(C(=O)c1cc2c(nc1Cl)nc(N)c1cnn(C)c12)[C@@H]1COCc2cc(C(F)(F)F)ccc21` [Example 296, 4-amino-7-chloro-N,1-dimethyl-N-((4S)-7-(trifluoromethyl)-3,4-dihydro-1H-2-benzopyran-4-yl)-1H-pyrazolo[4,3-c][1,8]naph-thyridine-8-carboxamide] are 8 nM and 159 nM.
Taken in the same sequence, the figures for `Cc1cc2nc(N)c3cnn(C)c3c2cc1C(=O)N(C)[C@@H]1COCc2nc(C(F)(F)F)ccc21` [Example 297, 4-amino-N,1,7-trimethyl-N-((5S)-2-(trifluoromethyl)-5,8-dihydro-6H-pyrano[3,4-b]pyr-idin-5-yl)-1H-pyrazolo[4,3-c]-quinoline-8-carboxamide] were 6 nM and 162 nM.
Regarding `Cc1cc2nc(N)c3cnn(C)c3c2cc1C(=O)N(C)[C@@H]1COCc2nc(Br)ccc21` [Example 298, 4-amino-N-((5S)-2-bromo-5,8-dihydro-6H-pyrano[3,4-b]-pyridin-5-yl)-N,1,7-trimethyl-1H-pyrazolo[4,3-c]quinoline-8-carboxamide], the IC50 in the experiment on HCT116 MTAP null cells was 1 nM; with HCT116 WT cells, 16 nM.
The corresponding values for `Cc1nc2nc(N)c3cnn(C)c3c2cc1C(=O)N(C)[C@@H]1COCc2cc(C#N)ccc21` [Example 299, 4-amino-N-((4S)-7-cyano-3,4-dihydro-1H-2-benzopyran-4-yl)-N,1,7-trimethyl-1H-pyr-azolo[4,3-c][1,8]naphthyridine-8-carboxamide] are 37 nM and 1520 nM.
The corresponding values for `Cc1nc2nc(N)c3cnn(C)c3c2cc1C(=O)N(C)[C@@H]1COCc2cc(C(F)(F)F)ccc21` [Example 300, 4-amino-N,1,7-trimethyl-N-((4S)-7-(trifluoromethyl)-3,4-dihydro-1H-2-benzopyran-4-yl)-1H-pyrazolo[4,3-c][1,8]-naphthyridine-8-carboxamide] are 16 nM and 225 nM.
On to `Cc1nc2nc(N)c3cnn(C)c3c2cc1C(=O)N(C)[C@@H]1COCc2nc(C(F)(F)F)ccc21` [Example 301, 4-amino-N,1,7-trimethyl-N-((5S)-2-(trifluoromethyl)-5,8-dihydro-6H-pyrano[3,4-b]pyridin-5-yl)-1H-pyrazolo-[4,3-c][1,8]naphthyridine-8-carboxamide], for which the IC50 with HCT116 MTAP null cells turned out to be 28 nM; in the experiment on HCT116 WT cells, 1250 nM.
The corresponding values for `CN(C(=O)c1cc2c(cc1C(F)(F)F)nc(N)c1cnn(C)c12)[C@@H]1COCc2cc(C(F)(F)F)ccc21` [Example 302, 4-amino-N,1-dimethyl-7-(trifluoromethyl)-N-((4S)-7-(trifluoromethyl)-3,4-dihydro-1H-2-benzopyran-4-yl)-1H-pyrazolo[4,3-c]quinoline-8-carboxamide] are 6 nM and 161 nM.
`CN(C(=O)c1cc2c(cc1C(F)(F)F)nc(N)c1cnn(C)c12)[C@@H]1COCc2nc(C(F)(F)F)ccc21` [Example 303, 4-amino-N,1-dimethyl-7-(trifluoromethyl)-N-((5S)-2-(trifluoromethyl)-5,8-dihydro-6H-pyrano[3,4-b]pyridin-5-yl)-1H-pyrazolo[4,3-c]quinoline-8-carboxamide]: the IC50 came out at 14 nM in the experiment with HCT116 MTAP null cells and 902 nM in the experiment on HCT116 WT cells.
The corresponding values for `CN(C(=O)c1cc2c(cn1)nc(N)c1c2cnn1C)[C@@H]1COCc2nc(C(F)(F)F)ccc21` [Example 304, 4-amino-N,3-dimethyl-N-((5S)-2-(trifluoromethyl)-5,8-dihydro-6H-pyrano[3,4-b]pyridin-5-yl)-3H-pyrazolo[3,4-c][1,7]naph-thyridine-8-carboxamide] are 198 nM and 9230 nM.
Regarding `CCN(C(=O)c1cc2c(cc1F)nc(N)c1c2cnn1C)[C@@H]1COCc2nc(C(F)(F)F)ccc21` [Example 305, 4-amino-N-ethyl-7-fluoro-3-methyl-N-((5S)-2-(trifluoro-methyl)-5,8-dihydro-6H-pyrano[3,4-b]pyridin-5-yl)-3H-pyrazolo[3,4-c]quinoline-8-carboxamide], the figures for the half-inhibitory concentration (IC50) in the experiment on HCT116 MTAP null cells and with HCT116 WT cells were 20 nM and 429 nM, respectively.
The corresponding values for `CN(C(=O)c1cc2c(cc1F)nc(N)c1c2cnn1C)C1COCc2cc(OC(F)(F)F)ccc21` [Example 306, 4-amino-7-fluoro-N,3-dimethyl-N-((4R)-7-(trifluoromethoxy)-3,4-dihydro-1H-2-benzopyran-4-yl)-3H-pyrazolo[3,4-c]quin-oline-8-carboxamide and 4-amino-7-fluoro-N,3-dimethyl-N-((4S)-7-(trifluoromethoxy)-3,4-dihydro-1H-2-benzopyran-4-yl)-3H-pyrazolo[3,4-c]quin-oline-8-carboxamide] are 111 nM and 5060 nM.
Taken in the same sequence, the figures for `CCN(C(=O)c1cc2c(cc1C)nc(N)c1c2cnn1C)[C@@H]1COCc2nc(C(F)(F)F)ccc21` [Example 307, 4-amino-N-ethyl-3,7-dimethyl-N-((5S)-2-(trifluoromethyl)-5,8-dihydro-6H-pyrano[3,4-b]-pyridin-5-yl)-3H-pyrazolo-[3,4-c]quinoline-8-carboxamide] were 19 nM and 471 nM.
For `Cc1n[nH]c2c1c(N)nc1ccc(C(=O)N(C)[C@@H]3COCc4nc(C(F)(F)F)ccc43)cc12` [Example 308, 4-amino-N,3-dimethyl-N-((5S)-2-(trifluoromethyl)-5,8-dihydro-6H-pyrano[3,4-b]pyridin-5-yl)-1H-pyrazolo[4,3-c]quinoline-8-carboxamide], the values for the IC50 in the experiment on HCT116 MTAP null cells and with HCT116 WT cells were 76 nM and 4130 nM, respectively.
Taken in the same sequence, the figures for `Cc1nn(C)c2c1c(N)nc1ccc(C(=O)N(C)[C@@H]3COCc4nc(C(F)(F)F)ccc43)cc12` [Example 309, 4-amino-N,1,3-trimethyl-N-((5S)-2-(trifluoromethyl)-5,8-dihydro-6H-pyrano[3,4-b]pyr-idin-5-yl)-1H-pyrazolo[4,3-c]-quinoline-8-carboxamide] were 150 nM and 9590 nM.

These data come from US20240124442A1, “TRICYCLIC-AMIDO-BICYCLIC PRMT5 INHIBITORS” (AMGEN INC., priority 2021, published 2024).
